Laboratory results from patent US10173971B2, “Picolinamides with fungicidal activity” (DOW AGROSCIENCES LLC, priority 2014, dated 2019).
Read-outs that look alike come from different tables or passages of the source.

Key:
[1] = system: Puccinia triticina; assay: Fungicidal activity: wheat brown rust (PUCCRT), wheat seedlings, booth sprayer to run-off or track spray; format: in vivo; conditions: High-Volume Cereal Activity at 100 ppm
Description: All fungicides were evaluated using the aforementioned method for their activity vs. all target diseases. Wheat leaf blotch and brown rust activity were also evaluated using track spray applications, in which case the fungicides were formulated as EC formulations, containing 0.1% Trycol 5941 in the spray solutions. Wheat plants (variety Yuma) were grown from seed in a greenhouse in 50% mineral soil/50% soil-less Metro mix until the first leaf was fully emerged, with 7-10 seedlings per pot. These plants were inoculated with an aqueous spore suspension of Puccinia triticina either prior to or after fungicide treatments. […] The plants were then transferred to a greenhouse set at 24° C. for disease to develop. Fungicide formulation, application and disease assessment followed the procedures as described in the Example A.

[2] = system: Zymoseptoria tritici; assay: Fungicidal activity: leaf blotch of wheat (SEPTTR), wheat seedlings, booth sprayer to run-off or track spray; format: in vivo; conditions: High-Volume Cereal Activity at 100 ppm
Description: All fungicides were evaluated using the aforementioned method for their activity vs. all target diseases. Wheat leaf blotch and brown rust activity were also evaluated using track spray applications, in which case the fungicides were formulated as EC formulations, containing 0.1% Trycol 5941 in the spray solutions. Wheat plants (variety Yuma) were grown from seed in a greenhouse in 50% mineral soil/50% soil-less Metro mix until the first leaf was fully emerged, with 7-10 seedlings per pot. These plants were inoculated with an aqueous spore suspension of Zymoseptoria tritici either prior to or after fungicide treatments. After inoculation the plants were kept in 100% relative humidity (one day in a dark dew chamber followed by two to three days in a lighted dew chamber at 20° C.) to permit spores to germinate and infect the leaf. The plants were then transferred to a greenhouse set at 20° C. for disease to develop. When disease symptoms were fully expressed on the 1st leaves of untreated plants, infection levels were assessed on a scale of 0 to 100 percent disease severity. Percent disease control was calculated using the ratio of disease severity on treated plants relative to untreated plants.

[3] = 3DC (Day Curative), read-out: PUCCRT 3DC
[4] = 3DC (Day Curative), read-out: SEPTTR 3DC
[5] = 24 h, 1 Day Protectant, read-out: PUCCRT 1DP
[6] = 24 h, 1 Day Protectant, read-out: SEPTTR 1DP

Row | Structure (SMILES) | pest or weed control at 100 ppm [1, 3] | pest or weed control at 100 ppm [2, 4] | pest or weed control at 100 ppm [1, 5] | pest or weed control at 100 ppm [2, 6]
1 | CCCC[C@H](c1ccccc1)[C@H](C)OC(=O)[C@H](C)NC(=O)c1nccc(OC)c1O [compound 120] | 0 to 80% | 0 to 80% |  | 
2 | COc1ccnc(C(=O)N[C@@H](C)C(=O)O[C@@H](C)[C@H](Cc2ccc(Cl)cc2)c2ccccc2)c1O [compound 121] | 0 to 80% | 0 to 80% | 80 to 100% | 80 to 100%
3 | COc1ccnc(C(=O)N[C@@H](C)C(=O)O[C@@H](C)[C@H](CCC(C)C)c2ccccc2)c1O [compound 123] | 0 to 80% | 80 to 100% |  | 
4 | COc1ccnc(C(=O)N[C@@H](C)C(=O)O[C@@H](C)[C@@H](COc2ccccc2)Cc2ccccc2)c1O [compound 125] | 0 to 80% | 0 to 80% | 0 to 80% | 0 to 80%
5 | COc1ccnc(C(=O)N[C@@H](C)C(=O)O[C@@H](C)[C@@H](COc2ccc(Cl)cc2Cl)Cc2ccccc2)c1O [compound 126] |  |  | 0 to 80% | 0 to 80%
6 | COc1ccnc(C(=O)N[C@@H](C)C(=O)O[C@@H](C)[C@H](Cc2ccc(Cl)c(Cl)c2)c2ccccc2)c1O [compound 127] |  | 0 to 80% | 0 to 80% | 0 to 80%
7 | COc1ccnc(C(=O)N[C@@H](C)C(=O)O[C@@H](C)[C@H](Cc2ccc(C)cc2)c2ccccc2)c1O [compound 128] |  | 0 to 80% | 80 to 100% | 80 to 100%
8 | COc1ccnc(C(=O)N[C@@H](C)C(=O)O[C@@H](C)[C@H](Cc2ccc(F)cc2)c2ccccc2)c1O [compound 129] | 0 to 80% | 0 to 80% | 80 to 100% | 80 to 100%
9 | COc1ccnc(C(=O)N[C@@H](C)C(=O)O[C@@H](C)[C@H](Cc2ccc3ccccc3c2)c2ccccc2)c1O [compound 130] |  | 0 to 80% | 80 to 100% | 80 to 100%
10 | COc1ccnc(C(=O)N[C@@H](C)C(=O)O[C@@H](C)[C@@H](COCc2ccccc2)Cc2ccc(F)cc2)c1O [compound 131] | 0 to 80% | 0 to 80% | 80 to 100% | 80 to 100%
11 | COc1ccnc(C(=O)N[C@@H](C)C(=O)O[C@@H](C)[C@@H](COCc2ccccc2)Cc2ccccc2)c1O [compound 132] | 80 to 100% | 80 to 100% | 80 to 100% | 0 to 80%
12 | COc1ccnc(C(=O)N[C@@H](C)C(=O)O[C@@H](C)[C@H](Cc2ccc(F)cc2)C(C)(C)OCc2ccccc2)c1O [compound 133] |  | 0 to 80% | 80 to 100% | 0 to 80%
13 | COc1ccnc(C(=O)N[C@@H](C)C(=O)O[C@@H](C)[C@H](Cc2ccccc2)C(C)(C)OCc2ccccc2)c1O [compound 134] | 0 to 80% | 0 to 80% | 80 to 100% | 80 to 100%
14 | COC[C@@H](Cc1ccc(F)cc1)[C@H](C)OC(=O)[C@H](C)NC(=O)c1nccc(OC)c1O [compound 135] | 0 to 80% | 0 to 80% | 80 to 100% | 0 to 80%
15 | COc1ccnc(C(=O)N[C@@H](C)C(=O)O[C@@H](C)[C@H](Cc2ccc(F)cc2)C(C)(C)OC)c1O [compound 136] | 0 to 80% | 80 to 100% | 0 to 80% | 
16 | COc1ccnc(C(=O)N[C@@H](C)C(=O)O[C@@H](C)[C@H](Cc2ccccc2)C(C)(C)OC)c1O [compound 137] | 0 to 80% | 0 to 80% |  | 
17 | COc1ccnc(C(=O)N[C@@H](C)C(=O)O[C@@H](C)[C@H](Cc2ccc(F)cc2)C(C)(C)OCc2ccc(F)cc2)c1O [compound 139] |  | 0 to 80% | 0 to 80% | 0 to 80%
18 | COc1ccnc(C(=O)N[C@@H](C)C(=O)O[C@@H](C)[C@@H](COCCC(C)C)Cc2ccc(F)cc2)c1O [compound 140] | 0 to 80% | 0 to 80% |  | 0 to 80%
19 | COc1ccnc(C(=O)N[C@@H](C)C(=O)O[C@@H](C)[C@@H](COCCC(C)C)Cc2ccccc2)c1O [compound 141] | 0 to 80% | 0 to 80% | 0 to 80% | 80 to 100%
20 | CCCOC[C@@H](Cc1ccc(OC)cc1)[C@H](C)OC(=O)[C@H](C)NC(=O)c1nccc(OC)c1O [compound 143] | 0 to 80% | 0 to 80% | 80 to 100% | 80 to 100%
21 | CCCOC[C@@H](Cc1ccc(OC)c(Cc2ccccc2)c1)[C@H](C)OC(=O)[C@H](C)NC(=O)c1nccc(OC)c1O [compound 145] |  | 0 to 80% | 0 to 80% | 80 to 100%
22 | CCCOC(C)(C)[C@@H](Cc1ccc(OC)c(Cc2ccccc2)c1)[C@H](C)OC(=O)[C@H](C)NC(=O)c1nccc(OC)c1O [compound 146] |  | 0 to 80% | 0 to 80% | 0 to 80%
23 | COc1ccnc(C(=O)N[C@@H](C)C(=O)OC(C)C(Cc2ccccc2)Cc2ccccc2)c1O (stereo partly shown) [compound 147] |  |  | 80 to 100% | 80 to 100%
24 | COc1ccnc(C(=O)N[C@H](C(=O)OC(C)C(Cc2ccccc2)Cc2ccccc2)C(C)C)c1O (stereo partly shown) [compound 148] |  |  | 0 to 80% | 0 to 80%
25 | CC[C@H](NC(=O)c1nccc(OC)c1O)C(=O)OC(C)C(Cc1ccccc1)Cc1ccccc1 (stereo partly shown) [compound 149] |  |  | 80 to 100% | 80 to 100%
26 | COc1ccnc(C(=O)N[C@@H](C)C(=O)OC(C)C(Cc2cccc(F)c2)Cc2cccc(F)c2)c1O (stereo partly shown) [compound 150] |  |  | 80 to 100% | 80 to 100%
27 | COc1ccnc(C(=O)N[C@@H](C)C(=O)OC(C)C(Cc2ccc(F)cc2)Cc2ccc(F)cc2)c1O (stereo partly shown) [compound 151] |  |  | 80 to 100% | 80 to 100%
28 | CC[C@H](NC(=O)c1nccc(OC)c1O)C(=O)O[C@@H](C)C(Cc1cccc(OC)c1)Cc1cccc(OC)c1 [compound 153] |  | 0 to 80% | 80 to 100% | 0 to 80%
29 | COc1ccc(CC(Cc2ccc(OC)cc2)[C@H](C)OC(=O)[C@H](C)NC(=O)c2nccc(OC)c2O)cc1 [compound 154] |  |  | 80 to 100% | 80 to 100%
30 | COc1ccc(C[C@H](COc2ccc(F)cc2F)[C@H](C)OC(=O)[C@H](C)NC(=O)c2nccc(OC)c2O)cc1 [compound 160] |  |  | 80 to 100% | 0 to 80%
